Test results as given in patent publication US20250082763A1, “COMBINATION DRUG FOR TREATING TRIPLE-NEGATIVE BREAST CANCER” (HINOVA PHARMACEUTICALS INC., priority 2022, published 2025).

Legend:
Type in all cases: cell-based
MDA-MB-453 = assay: Antiproliferation, CellTiter-Glo, 5 days, MDA-MB-453; settings: Homo sapiens, 120 h, MDA-MB-453, AR+ TNBC
Method: (§1) For MDA-MB-453, MFM-223, SUM159PT, MDA-MB-468, and HCC1937, 4,000, 3,000, 1,000, 3,000, and 3,000 cells were plated per well in 96-well microplates (Corning Inc), respectively. Cells were treated with serial dilutions of tested compounds with the maximum working concentration of 10 μM. Cell survival was measured 5 days later using a CellTiter-Glo luminescent cell viability assay kit (Promega Corporation). Luminescence was recorded by FLUOstar Omega microplate reader (BMG Labtech). Half maximal inhibitory concentration (IC50) was determined with GraphPad Prism using baseline correction (by normalizing to dimethyl sulfoxide (DMSO) control)

SUM159PT = assay: Antiproliferation, CellTiter-Glo, 5 days, SUM159PT; settings: Homo sapiens, SUM-159-PT, 120 h, AR+ TNBC
Method: as §1, with “Cells” for “For MDA-MB-453, MFM-223, SUM159PT, MDA-MB-468, and HCC1937, 4,000, 3,000, 1,000, 3,000, and 3,000 cells were plated per well in 96-well microplates (Corning Inc), respectively. Cells”

HCC1937 = assay: Antiproliferation, CellTiter-Glo, 5 days, HCC1937; settings: Homo sapiens, 120 h, HCC1937, AR− TNBC
Method: as §1

MDA-MB-453 cells = assay: Combination with chemotherapeutic drug Paclitaxel, proliferation of MDA-MB-453 cells, Combination Index; settings: molar ratio to Paclitaxel 20:1-5000:1, 7 days
Method: Triple negative breast cancer MDA-MB-453 cells in logarithmic growth stage were inoculated into a 96-well plate at a concentration of 4×10^3 cells/well, and then incubated in an incubator at 37° C., 5% CO2, and saturated humidity for 24 h. To the negative control wells, were added RPMI 1640 cell culture medium containing 10% fetal bovine serum in the same volume as the drug. After cultured for 24 h, to the 96-well plate, were sequentially added AR PROTACs compounds 279, 281, 282, ARV-110 and chemotherapeutic drug Paclitaxel, respectively.
After adding the drugs and co-incubating for 7 days, 10 μL of CCK-8 was added to each well, and then the plate was further cultured for 2 h. The absorbance value (OD) of each well was measured using a microplate reader at a wavelength of 450 nm. The survival rate was calculated using Prism software, the relative survival rate=(OD value of drug well/OD value of control well)×100%. Alternatively, 100 μL of medium was removed from each well, and then 50 μL of CTG was added. The plate was shaken in the dark for 2 min, allowed to stand for 10 min, and then measured using a microplate reader in Luminescence mode. Prism software was used to calculate the survival rate, the relative survival rate=(the RLU value of drug well/the RLU value of control well)×100%.

[1] = tested on: AR+ TNBC cells (MDA-MB-453, SUM159PT and MFM-223) and AR- TNBC (MDA-MB-468 and HCC1937); assay: Antiproliferation in AR positive and negative TNBC cells (summary over the cell line panel); settings: AR+ TNBC cells: MDA-MB-453, SUM159PT and MFM-223
Method: as §1

Androgen Receptor = target: T1, Androgen Receptor (Homo sapiens, UniProt P10275); assay: AR degradation in AR positive TNBC cells, western blotting; settings: MDA-MB-453, SUM159PT and MFM-223 cells, 24 hours, up to 1 μM, western blot
T1 construct: endogenous in cells
T1 sequence (P10275 1-920): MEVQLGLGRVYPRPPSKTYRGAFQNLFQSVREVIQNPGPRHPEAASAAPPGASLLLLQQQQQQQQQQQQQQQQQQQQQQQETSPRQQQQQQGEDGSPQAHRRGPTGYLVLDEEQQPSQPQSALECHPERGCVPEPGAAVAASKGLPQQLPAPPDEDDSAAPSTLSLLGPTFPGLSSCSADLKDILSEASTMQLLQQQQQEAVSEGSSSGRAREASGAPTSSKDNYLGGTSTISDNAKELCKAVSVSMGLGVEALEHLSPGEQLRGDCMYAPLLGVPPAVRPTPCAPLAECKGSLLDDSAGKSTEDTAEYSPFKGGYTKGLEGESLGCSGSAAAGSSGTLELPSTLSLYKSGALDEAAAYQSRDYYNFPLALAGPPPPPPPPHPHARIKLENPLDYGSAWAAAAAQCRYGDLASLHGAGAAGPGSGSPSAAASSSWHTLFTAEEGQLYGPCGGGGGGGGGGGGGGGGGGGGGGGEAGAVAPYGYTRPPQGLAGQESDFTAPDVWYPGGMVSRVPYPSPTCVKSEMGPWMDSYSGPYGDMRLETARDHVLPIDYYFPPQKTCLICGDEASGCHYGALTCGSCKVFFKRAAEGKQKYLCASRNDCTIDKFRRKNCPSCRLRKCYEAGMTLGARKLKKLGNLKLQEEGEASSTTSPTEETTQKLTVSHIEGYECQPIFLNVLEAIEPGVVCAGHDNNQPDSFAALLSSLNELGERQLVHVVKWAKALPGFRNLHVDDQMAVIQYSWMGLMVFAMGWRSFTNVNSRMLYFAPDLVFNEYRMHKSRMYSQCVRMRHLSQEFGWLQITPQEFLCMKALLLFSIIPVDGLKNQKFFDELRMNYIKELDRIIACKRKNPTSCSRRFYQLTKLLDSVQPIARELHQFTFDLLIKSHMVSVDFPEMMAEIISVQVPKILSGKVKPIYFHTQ
Method: Cells were plated in 12-well microplates and incubated at 37° C. overnight for attachment. Cells were then treated for 24 hours with serial dilutions of tested compounds with the maximum working concentration of 1 μM. Cell lysate were subjected to the western blotting assay against AR antibody.
Primary antibodies: Androgen Receptor (D6F11) XP® Rabbit mAb; Anti-GAPDH Rabbit mAb; Secondary antibody: Goat Anti-Rabbit IgG H&L (HRP)

| SMILES | IC50 (MDA-MB-453) [nM] | IC50 (SUM159PT) [nM] | IC50 (HCC1937) [nM] | effect of the combination with Paclitaxel on inhibiting proliferation (CI<1 = synergistic) (MDA-MB-453 cells) | anti-proliferation activity in AR+ TNBC cells [1] | AR degradation (words, FIG. 1) (Androgen Receptor) |
| --- | --- | --- | --- | --- | --- | --- |
| N#Cc1ccc(O[C@H]2CC[C@H](NC(=O)c3ccc(N4CCC(CN5CCN(c6cc7c(cc6F)C(=O)N(C6CCC(=O)NC6=O)C7=O)CC5)CC4)nn3)CC2)cc1Cl (stereo partly shown) [ARV-110, reference compound] | 1400 | 1600 | > 10000 | synergistic effect |  |  |
| N#Cc1ccc(O[C@H]2CC[C@H](NC(=O)c3cnc(N4CCC(CN5CCC6(CC5)CN(c5ccc7c(c5)C(=O)N(C5CCC(=O)NC5=O)C7=O)C6)CC4)nn3)CC2)cc1Cl (stereo partly shown) [Compound 279] | 140 | 440 | > 10000 | synergistic effect | superior anti-proliferation activity | superior degradation activity |
